Here are results for six compounds from patent US10913766B2, “Liver specific delivery-based entecavir prodrug, nucleoside cyclic phosphate compound, and application thereof” (ZHEJIANG PALO ALTO PHARMACEUTICALS, INC., priority 2017, dated 2021).

Details of data set [1]: species or system Male SD (Sprague-Dawley) rats. The note with it: rat, in vivo, po, 0.036 mmol/kg. Here is the method: Male SD (Sprague-Dawley) rats, weighing 180 to 300 g, were provided by Shanghai Xipuer-Beikai Experimental Animal Co., Ltd. The male animals were acclimatized to the environment for more than 3 days, and fasted for 12 hours overnight before the experiment, but were allowed to drink water. […] Before administration, the animals were checked to determine whether their body weights met the experimental requirements. Twelve rats were selected for grouping, two rats in each group. The drug solutions were administered intragastrically to the rats in an amount of 0.036 mmol/kg. The rats were euthanized with carbon dioxide gas and samples were collected, at 0.5 h, 1 h, 3 h, 6 h, 12 h, and 24 h, respectively. […] The supernatant plasma was taken, to which 10% trichloroacetic acid (containing PMPA as an internal standard, at a concentration of 100 ng/mL) was immediately added as a precipitant at a volume 5 times that of the plasma, to obtain plasma sample solutions. […] Two ceramic beads were added to each of the homogenization tubes for homogenization to obtain tissue homogenate samples. 100 μL of each biological sample was taken, placed in a 1.5 mL test tube, and centrifuged for 5 min. 20 μL of the supernatant was taken and mixed uniformly with 180 μL of water and then analyzed by LC-MS/MS. LC-MS/MS-AJ (Triple Quad 5500, AB SCIEX) was used for analysis of the samples. Chromatographic Column: Acquity UPLC HSS T3 (2.1×50 mm, 1.8 μm); Column Temperature: 40° C.; Flow Rate: 0.5 mL/min. Mobile Phase A: 0.1% formic acid in water, Mobile Phase B: Acetonitrile Solution. The mass spectrometry was performed with an electrospray ionization source (Turbo Ionspray) as an ion source, in a positive ion mode, at a capillary voltage of 3.0 kV, at a temperature of 500° C., and at a desolvation gas flow of 1000 L/h. The scanning time, cone voltage, collision energy, and the ion reaction for quantitative analysis were shown in Table 6 below: The concentration of the metabolite from each of the compounds in the liver was plotted as a function of time on a bar chart.

Data set [2] in a line: In-vitro metabolism in human liver microsomes, release of ETVMP (Example 24). The data set is classed as in vitro ADME. The note with it: result in words. From the text:
(§1) Human liver microsomes (HLM) were purchased from IVT (In Vitro Technologies) (Product No. X008070, Batch No. SSP). Rat liver microsomes (RLM) were purchased from BD with a batch number of 16298, and mice liver microsomes (MLM) were purchased from Research Institute for Liver Diseases (Shanghai) Co., Ltd. (RILD), with a batch number of BQNI.
(§2) The test compounds PA3001, PA3002, PA3003, and PA3004 were synthesized by Zhejiang Palo Alto Pharmaceuticals, Inc., and dissolved in methanol (from Sinopharm Chemical Reagent Co., Ltd.) to prepare storage solutions at a concentration of 25 mM.
(§3) The enzymatic reaction was carried out in a 100 mM KH2PO4 buffer solution (pH 7.4), with a test compound at a concentration of 25 μM, human liver microsomes at a concentration of 2 mg/ml, and NADPH at a concentration of 2 mM. The reaction was initiated by NADPH which was added last. After the reaction was carried out for 5 min in a constant-temperature shaking water bath kettle, methanol at a volume of 1.5 times that of the reaction mixture was added immediately to terminate the reaction.
(§4) Each sample was centrifuged at a maximum speed of 13,600 rpm for 20 minutes using an Eppendorf tabletop centrifuge. The supernatant was taken, and was blow-dried by a nitrogen blower and then re-dissolved in mobile phase A (0.1% formic acid (v/v) in water).
(§5) • Analysis Column: Waters, Acquity UPLC HSS T3 Column • Flow Rate: 0.5 ml/min • Column Temperature: 40 degrees Celsius • III. Mass Spectrometry Condition • Ion Source: Electrospray Ionization Source • Ion Mode: Positive Ion Mode • Capillary Voltage: 3.0 kV • Temperature: 500° C. • Desolvation Gas Flow Rate: […] • Scan Time: 0.025 s • Cone Voltage: 40 V • Collision Energy: 18 eV • Q1 (m/z): 358 • Q3 (m/z): 152

In a further data set the test system is hepatitis B virus (HBV). The note with it: read-out: EC50, antiviral activity in vitro; cited from earlier work.
The subject of data set [3] is lamivudine-resistant virus strains. The note with it: read-out: EC50, inhibitory activity against lamivudine-resistant virus strains; cited from earlier work.
The nature of data set [4]: In-vitro metabolism in mice liver microsomes, release of ETVMP (Example 24). The class given is in vitro ADME, mouse. The settings on record: result in words.
Description: as §1, §2, §3, §4, §5

Data set [5] in a line: In-vitro metabolism in rat liver microsomes, release of ETVMP (Example 24). The class given is in vitro ADME. The settings on record: result in words.
Description: as §1, §2, §3, §4, §5

In the case of `C=C1[C@H](COP2(=O)OCC[C@H](c3cc(F)cc(Cl)c3)O2)[C@@H](O)C[C@@H]1n1cnc2c(=O)[nH]c(N)nc21` (stereo partly drawn) [PA3002], in data set [1], the “AUC0-24 h of ETVMP in Liver” value is 8.1 nmol·h/g and the “AUC0-24 h of ETVMP in Plasma” value was 0.03 nmol·h/g. In data set [2], the “Efficiency of activation by human liver microsomes into ETVMP compared with comparative compound PA3001” value is listed as “significantly greater”.
`C=C1[C@H](COP2(=O)OCC[C@H](c3cc(Cl)ccc3Cl)O2)[C@@H](O)C[C@@H]1n1cnc2c(=O)[nH]c(N)nc21` (stereo partly drawn) [PA3017]: in data set [1], the “AUC0-24 h of ETVMP in Liver” value came out at 9.0 nmol·h/g and the “AUC0-24 h of ETVMP in Plasma” value was 0.08 nmol·h/g.
For orientation: EC50 means the midpoint of the concentration-response curve. On to `C=C1[C@@H](CO)[C@@H](O)C[C@@H]1n1cnc2c(=O)[nH]c(N)nc21` [ETV, 2-amino-9-[(1S,3S,4S)-4-hydroxy-3-hydroxymethyl-2-methylenecyclopentyl]-1,9-dihydro-6H-purine-6-one, reference compound], for which the EC50 with hepatitis B virus (HBV) was 4 nM. For the same compound, the EC50 in data set [3] is 10 to 59 nM. Moreover, in data set [1], the “AUC0-24 h of ETVMP in Liver” value was 16.6 nmol·h/g and the “AUC0-24 h of ETVMP in Plasma” value was 0.55 nmol·h/g.
For `C=C1[C@H](COP2(=O)OCC[C@H](c3cccc(Cl)c3)O2)[C@@H](O)C[C@@H]1n1cnc2c(=O)[nH]c(N)nc21` (stereo partly drawn) [PA3001], the “Activated in vitro into monophosphate metabolite ETVMP by mouse liver microsomes” value (“Activated … by mouse liver microsomes” for short) in data set [4] is reported as “activated”. The “Activated in vitro into monophosphate metabolite ETVMP by rat liver microsomes” value (“Activated … by rat liver microsomes” below) in data set [5] is given as “activated”. Further, in data set [1], the “AUC0-24 h of ETVMP in Brain Tissue” value amounted to 0.2 nmol·h/g, the “AUC0-24 h of ETVMP in Liver” value was 16.2 nmol·h/g and the “AUC0-24 h of ETVMP in Plasma” value was found to be 0.17 nmol·h/g. Further, the “Activated in vitro into monophosphate metabolite ETVMP by human liver microsomes” value (“Activated … by human liver microsomes” for short) in data set [2] is listed as “activated”.
For `C=C1[C@H](COP2(=O)OCC[C@H](c3ccncc3)O2)[C@@H](O)C[C@@H]1n1cnc2c(=O)[nH]c(N)nc21` (stereo partly drawn) [PA3003], in data set [4], the “Activated … by mouse liver microsomes” value is “activated”. Besides, the “Activated … by rat liver microsomes” value in data set [5] is reported as “activated”. Also, in data set [1], the “AUC0-24 h of ETVMP in Brain Tissue” value was 1.1 nmol·h/g, the “AUC0-24 h of ETVMP in Liver” value was 18.9 nmol·h/g and the “AUC0-24 h of ETVMP in Plasma” value turned out to be 0.19 nmol·h/g. Moreover, the “Activated … by human liver microsomes” value in data set [2] was “activated”.
For the compound `C=C1[C@H](COP2(=O)OCC[C@H](c3cc(Cl)ccc3F)O2)[C@@H](O)C[C@@H]1n1cnc2c(=O)[nH]c(N)nc21` (stereo partly drawn) [PA3004], the “Activated … by mouse liver microsomes” value in data set [4] was “activated”. In addition, the “Rank of conversion rate among tested compounds, mouse liver microsomes” value in data set [4] (Table 3) was “highest rate”. The “Activated … by rat liver microsomes” value in data set [5] is given as “activated”. For the same compound, in data set [5] (Table 3), the “Rank of conversion rate among tested compounds, rat liver microsomes” value was “highest rate”. In data set [1], the “AUC0-24 h of ETVMP in Liver” value is 11.6 nmol·h/g and the “AUC0-24 h of ETVMP in Plasma” value turned out to be 0.09 nmol·h/g. For the same compound, in data set [2], the “Activated … by human liver microsomes” value is given as “activated” and the “Efficiency of activation by human liver microsomes into ETVMP compared with comparative compound PA3001” value is listed as “significantly greater”. In addition, the “Rank of conversion rate among tested compounds, human liver microsomes” value in data set [2] (Table 3) is given as “highest rate”.
